In article PMC3250100 (The Journal of General Physiology, 2012):

Target: Cx50 (Mus musculus, UniProt P28236)
Format: biochemical

Cx50, sequence (P28236 2-440): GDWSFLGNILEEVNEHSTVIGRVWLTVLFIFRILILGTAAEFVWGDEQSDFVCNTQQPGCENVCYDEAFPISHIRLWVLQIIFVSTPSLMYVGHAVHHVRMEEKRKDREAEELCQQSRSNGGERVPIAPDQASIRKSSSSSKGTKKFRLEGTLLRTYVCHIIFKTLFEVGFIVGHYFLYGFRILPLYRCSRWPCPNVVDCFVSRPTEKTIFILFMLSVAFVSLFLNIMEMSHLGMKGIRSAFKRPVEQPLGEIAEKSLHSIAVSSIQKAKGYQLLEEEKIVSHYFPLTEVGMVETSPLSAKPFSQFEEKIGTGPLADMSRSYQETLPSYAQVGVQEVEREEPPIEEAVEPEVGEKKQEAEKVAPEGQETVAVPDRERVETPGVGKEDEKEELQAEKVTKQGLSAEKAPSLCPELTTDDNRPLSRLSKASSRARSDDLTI

C=C[C@H]1C[N+]2(Cc3ccccc3)CC[C@H]1C[C@H]2[C@H](O)c1ccnc2ccc(OC)cc12 [BQ+, N-benzylquininium]
IC50: 340 µM
